In PMC4441825 (Chemical research in toxicology, 2013) one finds IC50 data, which are given here for 1 molecule.

Structures are written as SMILES.

In the assay the target is regulator of G-protein signaling 4 (RGS4) (Rattus norvegicus, UniProt P49799). The experiment in a line: LC-ESI-MS of intact protein. It is filed as biochemical.
Chain of regulator of G-protein signaling 4 (RGS4) (P49799 52-205): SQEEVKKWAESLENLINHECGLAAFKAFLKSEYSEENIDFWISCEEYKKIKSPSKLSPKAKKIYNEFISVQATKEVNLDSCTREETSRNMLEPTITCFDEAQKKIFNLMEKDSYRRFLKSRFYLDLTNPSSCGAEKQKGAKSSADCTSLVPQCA
Chain of regulator of G-protein signaling 4 (RGS4) (P63096 2-354 R178M/A326S partner): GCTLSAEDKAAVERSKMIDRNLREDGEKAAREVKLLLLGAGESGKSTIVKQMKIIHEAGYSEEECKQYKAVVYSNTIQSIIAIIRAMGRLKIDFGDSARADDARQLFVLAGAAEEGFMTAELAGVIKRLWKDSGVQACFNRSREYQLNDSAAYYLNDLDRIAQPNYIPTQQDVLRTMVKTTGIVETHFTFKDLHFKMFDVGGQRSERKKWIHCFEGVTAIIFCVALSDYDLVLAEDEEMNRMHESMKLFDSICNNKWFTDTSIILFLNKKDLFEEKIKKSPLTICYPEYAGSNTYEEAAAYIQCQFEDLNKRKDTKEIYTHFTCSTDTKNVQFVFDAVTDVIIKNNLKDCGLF

For the molecule `CCCCCC(O)C=CC=O` (stereo not shown) [4HNE, 4-hydroxy-2-nonenal], the IC50 was about 7.5 mM.

In general, IC50 refers to the concentration that gives 50% inhibition. Read a high IC50 as weaker potency in that assay.
